Data reported in patent US20260274794A1, “COMPOUNDS, COMPOSITIONS, AND METHOD OF INHIBITING TAU PROTEIN AND ALPHASYNUCLEIN AGGREGATION” (Purdue Research Foundation, priority 2023, published 2026).

Key:
[1] = target: T1, α-synuclein (α-syn) (Homo sapiens, UniProt P37840); test: Thioflavin T (ThT) fluorescence assay of α-syn fibril formation; assay type: biochemical; conditions: compound 100 μM; ThT fluorescence intensity at plateau phase, control = 100%
T1 construct: purchased rPeptide, LLC (Watkinsville, GA)
Protocol: ThT fluorescence is routinely established assay to follow the kinetics of α-syn fibril formation with different drug candidate treatments. Compounds were first tested at a final of concentration of 100 μM and α-syn and 2N4R tau were prepared at 2 μM and 6 μM, respectively. Compounds with highest anti-fibrillary activity were tested at 3.125, 6.25, 12.5, 25, 50, and 100 μM to obtain dose-response curves.
For the α-syn ThT assay, ThT was used at a final concentration of 20 μM. α-Syn was dissolved in 20 mM Tris-HCl (pH 7.4) supplemented with 100 mM NaCl to a stock solution of 280 μM (1 mg/250 μL) prior to resuspension in ThT buffer to obtain a final concentration of 2 μM. Compounds and ThT were first added to the wells. The kinetics of fibril formation begin when the α-syn was solubilized in the ThT buffer (10 mM PBS buffer (pH 7.4), supplemented with 0.5 mM SDS and 300 mM NaCl) and added to a non-treated black 96 well microplate with a transparent flat bottom. Each well was filled with a maximum volume of 150 μL buffer with one 3 mm borosilicate bead. The background fluorescence signal consisted of ThT in buffer and 0.25% DMSO without α-syn. The excitation and emission wavelengths were set at 440 and 485 nm, respectively, with a Synergy HT multi-mode microplate reader (BioTek, Winooski, VT). Measurements were taken at 37° C. every 20 minutes over 50 hours of shaking prior to reading the plate. Samples were measured in three replicates and the experiments were repeated three times using different α-syn stock solutions. For each time point, the background fluorescence signal was subtracted. Arbitrary units of fluorescence were calculated from the mean values normalized against the maximum value in each completed assay. Arbitrarily, the maximum value (100%) for the fluorescence intensity was established for α-syn.
Compounds were tested at 100 μM with α-syn at 6 μM, resulting in a molar ratio of approximately 1:16 (protein:compound). The plateau phase of sigmoidal kinetics is of particular interest because it is the phase in which mature fibrils form and where aggregation and disaggregation are at equilibrium with each other; therefore, the fluorescence intensity between multiple compounds at the plateau phase can be compared to identify the compounds with the most promising anti-aggregation activity (Table 1, column α-syn ThT %). […] Compound 17 was the best representative of the 5-aminoindole series and moved to the tier-2 assays, even though the resulting ThT percentage of fluorescence intensity was 10% higher than the cut off. These compounds were then tested on tau 2N4R ThT fluorescence assays.

[2] = test system: M17D-TR/αS-3K::YFP neuroblastoma cells; test: α-Syn inclusion assay in dox-inducible neuroblastoma cells; assay type: cell-based; conditions: for reduction of inclusions: lower concentrations (below 40 μM)
Protocol: Dox-inducible neuroblastoma cells M17D-TR/αS-3K::YFP were used according to the published experimental procedure. For this cell-based assay, the cellular density consisted of 30,000 cells per well in a 96-well plate format. After 24 h of seeding the plates, compounds were introduced at ranging concentrations of 5 to 40 μM for a period of 24 h. After, the induction of the αS-3K::YFP transgene expression was initiated by adding dox (1 ug per mL, final concentration in culture media). Cells were incubated in the Incucyte Zoom 2000 platform (Essen Biosciences), where the acquisition of images (green, bright field) occurred continuously. After 48 hours of induction, inclusion formation and cell growth were assessed. To determine the level of different proteins by western blotting, α-syn monoclonal antibody 41312 (Thermofisher, Waltham, MA; 1:1000) and GAPDH polyclonal antibody (Sigma-Aldrich, St. Louis, MO, G9545; 1:5000) were used.
To evaluate the effects of compounds on inclusion formation and cell survival, M17D neuroblastoma cells that express an α-syn-derived αS-3K::YFP fusion protein in a doxycycline-inducible fashion were used. The cells were treated with 0.1% DMSO (control) and compounds 13, 2, 8, and 17 at various concentrations at t=24 hrs. Cells were induced with dox at t=48 hours. Punctate YFP signals were measured and normalized to 0.1% DMSO at t=96 hours. Eight independent experiments (N=8; n=14; except DMSO, n=30) were performed. The familial PD-linked α-syn missense mutation E46K is amplified by α-syn E35K+E46K+E61K (=αS3K), which results in round cytoplasmic α-syn-based inclusions in cultured cells. αS3K expression is responsible for cell stress/toxicity and delayed growth of neuroblastoma cells. […] Therefore, this assay was selected to evaluate the effect of the compound 13, as a weak to non-inhibitor of aggregation, and the three best anti-aggregation inhibitors, namely compounds 2, 8, and 17 (FIG. 6). […] Western blot analyses for total α-syn, normalized to calnexin (loading control), were performed to determine the compound effect on α-syn protein level due to degradation or non-specific effect on transgene expression.

[3] = Kinetics of solubility in ThT buffer; assay type: physicochemical; conditions: ThT buffer: 1×PBS pH 7.4, 300 mM NaCl, 0.5 mM SDS
Protocol: Kinetics of solubility analysis was performed at the MSU Medicinal Chemistry Core facility.

Row | remaining activity at 100 µM [1] | Measured Solubility [3] | SMILES | reduction of inclusions [2] | toxicity (confluence) ([2]; 40 μM) | inclusion formation ([2]; 40 μM, M17D αS3K cells) | α-syn protein level (Western blot) ([2]; low concentration (5-10 μM) only)
1 | ≤ 30% | >300 µM | O=C(Nc1cccc2[nH]ccc12)c1ccccc1 [Compound 2, N-(1H-indol-4-yl)benzamide] | None of these compounds exhibited a significant reduction of inclusions | – | – | –
2 | ≤ 30% | >300 µM | O=C(Nc1cccc2[nH]ccc12)c1ccc(F)cc1 [Compound 8, 4-fluoro-N-(1H-indol-4-yl)benzamide] | None of these compounds exhibited a significant reduction of inclusions | small degree of toxicity | reduced inclusion formation | reduced α-syn levels
3 | 73.7 ± 5.6% | >300 µM | O=C(Nc1ccc2[nH]ccc2c1)c1ccccc1Cl [Compound 13, 2-chloro-N-(1H-indol-5-yl)benzamide] | None of these compounds exhibited a significant reduction of inclusions | – | – | –
